From the CheMixHub viscosity set

Test: xn = mol fraction of the nth substance listed

C=CC#N + CN(C)C=O
303.15 K, 101.3 kPa
Settings | viscosity [mPa·s]
x1 = 0.099 | 0.7313
x1 = 0.2027 | 0.6911
x1 = 0.2977 | 0.6444
x1 = 0.4005 | 0.5998
x1 = 0.497 | 0.5516
x1 = 0.5957 | 0.5028
x1 = 0.6984 | 0.4518
x1 = 0.798 | 0.4041
x1 = 0.895 | 0.3581

CCCCN(CCCC)CCCC + CC(C)CC(C)(C)C
viscosity [mPa·s], 101 kPa
Settings | x1 = 0.1106 | x1 = 0.2474 | x1 = 0.3947 | x1 = 0.4958 | x1 = 0.5982 | x1 = 0.793 | x1 = 0.8938
303.15 K | 0.505 | 0.5839 | 0.6783 | 0.7486 | 0.8256 | 0.9844 | 1.072
313.15 K | 0.4465 | 0.5109 | 0.5884 | 0.6462 | 0.7101 | 0.8423 | 0.9171

[2H]O[2H] + [Cl-].[K+]
viscosity [mPa·s], 101 kPa
Settings | x2 = 0.005 | x2 = 0.01 | x2 = 0.022 | x2 = 0.04 | x2 = 0.064
298.15 K | 1.095 | 1.08 | 1.076 | 1.089 | 1.101
308.15 K | 0.868 | 0.859 | 0.871 | 0.889 | 0.912
318.15 K | 0.714 | 0.709 | 0.732 | 0.755 | 0.784

Cn1cc[n+](CCC[n+]2ccccc2)c1.[Br-].[Br-] + O
viscosity [mPa·s], 101 kPa
Settings | 293.15 K | 298.15 K | 303.15 K | 308.15 K | 313.15 K
x1 = 0.0003405 | 1.016 | 0.905 | 0.811 | 0.734 | 0.667
x1 = 0.0004322 | 1.019 | 0.907 | 0.814 | 0.737 | 0.669
x1 = 0.0005421 | 1.021 | 0.909 | 0.816 | 0.739 | 0.672
x1 = 0.000689 | 1.023 | 0.911 | 0.819 | 0.742 | 0.675
x1 = 0.0008251 | 1.032 | 0.918 | 0.827 | 0.744 | 0.678
x1 = 0.0009589 | 1.035 | 0.921 | 0.829 | 0.747 | 0.681
x1 = 0.001109 | 1.038 | 0.924 | 0.832 | 0.749 | 0.684
x1 = 0.00128 | 1.041 | 0.927 | 0.835 | 0.752 | 0.687
x1 = 0.001457 | 1.043 | 0.93 | 0.837 | 0.755 | 0.689
x1 = 0.001664 | 1.047 | 0.933 | 0.839 | 0.758 | 0.691
x1 = 0.001904 | 1.05 | 0.936 | 0.841 | 0.761 | 0.693
x1 = 0.002122 | 1.053 | 0.939 | 0.843 | 0.763 | 0.696
x1 = 0.002357 | 1.057 | 0.942 | 0.846 | 0.766 | 0.699

CCCCC(C)O (configuration not stated) + CO
298.15 K, 101.33 kPa
Settings | viscosity [mPa·s]
x2 = 0.1062 | 3.747
x2 = 0.2053 | 3.337
x2 = 0.3128 | 2.892
x2 = 0.412 | 2.43
x2 = 0.5053 | 2.04
x2 = 0.6071 | 1.647
x2 = 0.703 | 1.315
x2 = 0.8146 | 0.9858
x2 = 0.9006 | 0.7707
